From patent US20220267258A1, “ROBENIDINE ANALOGS AS POTENT ANTIMALARIALS AGAINST DRUG-RESISTANT PLASMODIUM FALCIPARUM” (OREGON HEALTH & SCIENCE UNIVERSITY, priority 2021, published 2022)
Counter-ions that a name gives are not always drawn. Like-named read-outs stand apart in the source and are kept apart here.

Key:
[1] = test system: P. falciparum strain D6; test: SYBR Green growth inhibition assay, P. falciparum D6; format: cell-based, Plasmodium falciparum; settings: read-out: IC50 D6
Protocol: The in vitro activity of each compound in the aminoguanidine library was assessed against asynchronous cultures of Plasmodium falciparum parasites replicating within human erythrocytes (Tables 1-3). As the chemical development of robenidine was not discussed in its original publication in 1970^4 and limited structural information is available regarding its mechanism of action,^10 profiling was guided primarily by in vitro potency against the P. falciparum D6 strain cultured in human erythrocytes as described above.
(§1) The following parasite strains were used in this study and obtained through BEI Resources, NIAID, NIH. […] The culture medium used was RPMI-1640, supplemented with 25 mM HEPES buffer, 25 mg/L gentamicin sulfate, 45 mg/L hypoxanthine, 10 mM glucose, 2 mM glutamine, and 0.5% Albumax II (complete medium).^43 Cultures were maintained in a standard low oxygen atmosphere (5% O2, 5% CO2, 90% N2) in an environmental chamber and incubated at 37° C. Cultures were sub-passaged every 3-4 days into a fresh culture flask containing complete media and erythrocytes.
The aminoguanidine series was assessed for in vitro antiplasmodial activity using the fluorescence-based SYBR Green assay described previously by Smilkstein and co-workers.^38 Compounds were evaluated in quadruplicate in flat-bottomed Costar clear 96-well plates (Model #3585). A two-fold serial dilution of each compound was performed across the columns of the test plates starting with 20 μM and ending with a final untreated column to serve as control wells. Asynchronous parasite infected erythrocytes in growth media were added to each well for a total volume of 100 μL, final hematocrit of 2%, and initial parasitemia of 0.2%. […] Test plates were incubated for 72 hr at 37° C. in an environmental chamber with a controlled low oxygen atmosphere (5% O2, 5% CO2, 90% N2). After the incubation period, 100 μL SYBR Green I dye-detergent solution was added to each well, and the plates were incubated at ambient temperature and atmosphere in the dark for at least one hour. Fluorescence was read at 497 nm excitation and 520 nm emission bands using a Spectramax iD3 plate reader. Fluorescence readings were normalized with respect to the untreated control wells representing normal parasite growth and plotted against the logarithm of drug concentration.

[2] = test system: P. falciparum Dd2; test: SYBR Green growth inhibition assay, P. falciparum Dd2; format: cell-based, Plasmodium falciparum; settings: read-out: IC50 Dd2
Protocol: (§2) In addition to the drug-sensitive P. falciparum D6 strain, the aminoguanidines were assessed against three drug-resistant strains (Tables 1-3).
as §1
(§3) The aminoguanidine series was assessed for in vitro antiplasmodial activity using the fluorescence-based SYBR Green assay described previously by Smilkstein and co-workers.^38 Compounds were evaluated in quadruplicate in flat-bottomed Costar clear 96-well plates (Model #3585). A two-fold serial dilution of each compound was performed across the columns of the test plates starting with 20 μM and ending with a final untreated column to serve as control wells. Asynchronous parasite infected erythrocytes in growth media were added to each well for a total volume of 100 μL, final hematocrit of 2%, and initial parasitemia of 0.2%. The commercial malaria drugs atovaquone and chloroquine were used as control drugs. Test plates were incubated for 72 hr at 37° C. in an environmental chamber with a controlled low oxygen atmosphere (5% O2, 5% CO2, 90% N2). After the incubation period, 100 μL SYBR Green I dye-detergent solution was added to each well, and the plates were incubated at ambient temperature and atmosphere in the dark for at least one hour. Fluorescence was read at 497 nm excitation and 520 nm emission bands using a Spectramax iD3 plate reader. Fluorescence readings were normalized with respect to the untreated control wells representing normal parasite growth and plotted against the logarithm of drug concentration.

[3] = test system: P. falciparum Tm90-C2B; test: SYBR Green growth inhibition assay, P. falciparum Tm90-C2B; format: cell-based, Plasmodium falciparum; settings: read-out: IC50 Tm90-C2B
Protocol: as §2, §1, §3

[4] = test system: P. falciparum A6; test: SYBR Green growth inhibition assay, P. falciparum A6; format: cell-based, Plasmodium falciparum; settings: read-out: IC50 A6
Protocol: as §2, §1, §3

[5] = test system: human hepatoma derived HepG2 cells; test: HepG2 cytotoxicity assay (resazurin); format: cell-based; settings: HepG2, 24 hr drug, 24 hr recovery
Protocol: (§4) In this assay, HepG2 cells were incubated with test compounds for 24 hours, followed by a 24-hour recovery period and subsequent staining to evaluate for cytotoxic effects with resazurin. The ratio of the resulting HepG2 IC50 value to the P. falciparum D6 IC50 value can be considered an ‘in vitro therapeutic index,’ or IVTI.
(§5) Compounds were prepared as 10 mM stock solutions in DMSO. […] HepG2 cells were added to each well of flat bottom 96-well tissue culture plates at an initial density of 2×10^4 cells per well, and an initial volume of 160 μL complete medium per well. After an overnight incubation at 37° C. to adhere the cells to the culture plates, 40 μL drug solutions in complete medium were applied to each well at a final concentration range of 0 to 200 μM across each plate. Drugs were tested in triplicate or quadruplicate. The cells were incubated for 24 hours at 37° C. and 5% CO2 with the drug solutions, which were then aspirated and replaced with 200 μL per well of complete medium for an additional 24 hour incubation under the same conditions. To each well was added 20 μL of resazurin (Alamar Blue) in PBS buffer to a final concentration of 10 μM, and the plates were incubated for 3 hours. Fluorescence was measured at 560 nm excitation and 590 nm emission bands using a Spectramax iD3 plate reader. Fluorescence readings were normalized with respect to the untreated control wells and plotted against the logarithm of drug concentration.

[6] = HepG2 cytotoxicity assay (resazurin); format: cell-based, human; settings: human, HepG2 cells; HepG2, 24 hr drug, 24 hr recovery
Protocol: as §4, §5

[7] = Plasmodium falciparum, DD2, 72 h
[8] = Plasmodium falciparum, TM90, 72 h
[9] = Plasmodium falciparum, D6, Erythrocyte, 72 h
[10] = pan-sensitive strain, 72 hr, asynchronous cultures in human erythrocytes
[11] = multi-drug resistant strain, 72 hr
[12] = multi-drug resistant clinical isolate, also atovaquone resistant, 72 hr
[13] = mutant line resistant to respiratory antagonists, 72 hr

| SMILES | IC50 ([1]; Plasmodium falciparum, D6, Erythrocyte, pan-sensitive strain, 72 hr, asynchronous cultures in human erythrocytes) | IC50 [2, 7] | IC50 [3, 8] | IC50 ([4]; Plasmodium falciparum, 72 h) | IC50 [5] | IC50 [1, 9] | IC50 at 24 h [6] | IC50 [1, 10] | IC50 [2, 11] | IC50 [3, 12] | IC50 [4, 13] |
| --- | --- | --- | --- | --- | --- | --- | --- | --- | --- | --- | --- |
| O=C1C(O)=C([C@H]2CC[C@H](c3ccc(Cl)cc3)CC2)C(=O)c2ccccc21 [Atovaquone, reference compound] | < 1 nM | < 1 nM | > 5000 nM | > 5000 nM | 72000 nM | – | – | – | – | – | – |
| N=C(N/N=C/c1ccccc1F)N/N=C/c1ccccc1F [Compound 2] | – | 4590 nM | > 5000 nM | 1890 nM | – | 2870 nM | > 200000 nM | – | – | – | – |
| N=C(N/N=C/c1cccc(F)c1)N/N=C/c1cccc(F)c1 [Compound 3] | – | > 5000 nM | > 5000 nM | 426 nM | – | 767 nM | 49000 nM | – | – | – | – |
| N=C(N/N=C/c1ccc(F)cc1)N/N=C/c1ccc(F)cc1 [Compound 4] | – | 3790 nM | 4900 nM | 369 nM | – | 1020 nM | 24000 nM | – | – | – | – |
| N=C(N/N=C/c1ccccc1Cl)N/N=C/c1ccccc1Cl [Compound 5] | – | 961 nM | 1220 nM | 348 nM | – | 334 nM | > 200000 nM | – | – | – | – |
| N=C(N/N=C/c1cccc(Cl)c1)N/N=C/c1cccc(Cl)c1 [Compound 6] | – | 567 nM | 664 nM | 237 nM | – | 202 nM | 35000 nM | – | – | – | – |
| N=C(N/N=C/c1ccccc1Br)N/N=C/c1ccccc1Br [Compound 7] | – | 715 nM | 974 nM | 876 nM | – | 280 nM | 94000 nM | – | – | – | – |
| N=C(N/N=C/c1cccc(Br)c1)N/N=C/c1cccc(Br)c1 [Compound 8] | – | 1520 nM | 1840 nM | 502 nM | – | 572 nM | 62000 nM | – | – | – | – |
| N=C(N/N=C/c1ccc(Br)cc1)N/N=C/c1ccc(Br)cc1 [Compound 9] | – | 876 nM | 899 nM | 269 nM | – | 277 nM | 38000 nM | – | – | – | – |
| Cc1ccc(/C=N/NC(=N)N/N=C/c2ccc(C)cc2)cc1 [Compound 10] | – | 2430 nM | 2530 nM | > 5000 nM | – | 905 nM | 43000 nM | – | – | – | – |
| COc1ccc(/C=N/NC(=N)N/N=C/c2ccc(OC)cc2)cc1 [Compound 11] | – | 1600 nM | > 5000 nM | 289 nM | – | 263 nM | > 200000 nM | – | – | – | – |
| N=C(N/N=C/c1ccc(C(F)(F)F)cc1)N/N=C/c1ccc(C(F)(F)F)cc1 [Compound 12] | – | 1540 nM | 2740 nM | 567 nM | – | 614 nM | 40000 nM | – | – | – | – |
| N=C(N/N=C/c1ccccc1OC(F)(F)F)N/N=C/c1ccccc1OC(F)(F)F [Compound 14] | – | 2330 nM | > 5000 nM | 391 nM | – | 1080 nM | 156000 nM | – | – | – | – |
| N=C(N/N=C/c1cccc(OC(F)(F)F)c1)N/N=C/c1cccc(OC(F)(F)F)c1 [Compound 15] | – | 1570 nM | 2990 nM | 689 nM | – | 670 nM | 61000 nM | – | – | – | – |
| N=C(N/N=C/c1ccc(OC(F)F)cc1)N/N=C/c1ccc(OC(F)F)cc1 [Compound 18] | – | 191 nM | 193 nM | 87 nM | – | 71 nM | 19000 nM | – | – | – | – |
| N#Cc1ccccc1/C=N/NC(=N)N/N=C/c1ccccc1C#N [Compound 20] | – | 2100 nM | 1990 nM | 969 nM | – | 1020 nM | 31000 nM | – | – | – | – |
| N=C(N/N=C/c1ccccc1)N/N=C/c1ccccc1 [Compound 24] | – | 4300 nM | > 5000 nM | 581 nM | – | 705 nM | > 200000 nM | – | – | – | – |
| N=C(N/N=C/c1ccc(O)cc1)N/N=C/c1ccc(O)cc1 [Compound 25] | – | 240 nM | 286 nM | 278 nM | – | 143 nM | 39000 nM | – | – | – | – |
| N=C(N/N=C/c1ccc(-c2ccccc2)cc1)N/N=C/c1ccc(-c2ccccc2)cc1 [Compound 26] | – | 87 nM | 71 nM | 33 nM | – | 15 nM | > 200000 nM | – | – | – | – |
| N=C(NN=Cc1ccc([N+](=O)[O-])cc1)NN=Cc1ccc([N+](=O)[O-])cc1 [Compound 27] | – | – | – | – | > 200000 nM | – | – | 96 nM | 198 nM | 247 nM | 85 nM |
| CN(C)c1ccc(/C=N/NC(=N)N/N=C/c2ccc(N(C)C)cc2)cc1 [Compound 28] | – | 264 nM | 213 nM | 122 nM | – | 118 nM | 20000 nM | – | – | – | – |
| N=C(NN=Cc1ccc(S(N)(=O)=O)cc1)NN=Cc1ccc(S(N)(=O)=O)cc1 [Compound 31] | – | – | – | – | > 200000 nM | – | – | > 5000 nM | > 5000 nM | > 5000 nM | > 5000 nM |
| CC#COc1ccc(/C=N/NC(=N)N/N=C/c2ccc(OC#CC)cc2)cc1 [Compound 32] | – | 199 nM | 376 nM | 153 nM | – | 102 nM | > 200000 nM | – | – | – | – |
| N=C(N/N=C/c1ccc(N2CCOCC2)cc1)N/N=C/c1ccc(N2CCOCC2)cc1 [Compound 33] | – | 329 nM | 295 nM | 116 nM | – | 131 nM | > 200000 nM | – | – | – | – |
| N=C(NN=Cc1ccc2c(c1)OC(F)(F)O2)NN=Cc1ccc2c(c1)OC(F)(F)O2 [Compound 36, 2,2′-Bis{[4-(2,2-difluoro-2,3-dioxazolo)]phenyl}methylene]carbonimidic Dihydrazide Hydrochloride] | – | – | – | – | > 200000 nM | – | – | 250 nM | 800 nM | 905 nM | 235 nM |
| N=C(N/N=C/c1ccccc1)N/N=C/c1ccccc1F [Compound 38] | – | 2200 nM | > 5000 nM | 833 nM | – | 1030 nM | > 200000 nM | – | – | – | – |
